Counter-ions that a name gives are not always drawn.
Each compound was assayed against hERG (Homo sapiens, UniProt Q12809) (assay: cell-based). Settings: (-LOG10(IC50), µM).
Sequence of hERG (Q12809 whole entry): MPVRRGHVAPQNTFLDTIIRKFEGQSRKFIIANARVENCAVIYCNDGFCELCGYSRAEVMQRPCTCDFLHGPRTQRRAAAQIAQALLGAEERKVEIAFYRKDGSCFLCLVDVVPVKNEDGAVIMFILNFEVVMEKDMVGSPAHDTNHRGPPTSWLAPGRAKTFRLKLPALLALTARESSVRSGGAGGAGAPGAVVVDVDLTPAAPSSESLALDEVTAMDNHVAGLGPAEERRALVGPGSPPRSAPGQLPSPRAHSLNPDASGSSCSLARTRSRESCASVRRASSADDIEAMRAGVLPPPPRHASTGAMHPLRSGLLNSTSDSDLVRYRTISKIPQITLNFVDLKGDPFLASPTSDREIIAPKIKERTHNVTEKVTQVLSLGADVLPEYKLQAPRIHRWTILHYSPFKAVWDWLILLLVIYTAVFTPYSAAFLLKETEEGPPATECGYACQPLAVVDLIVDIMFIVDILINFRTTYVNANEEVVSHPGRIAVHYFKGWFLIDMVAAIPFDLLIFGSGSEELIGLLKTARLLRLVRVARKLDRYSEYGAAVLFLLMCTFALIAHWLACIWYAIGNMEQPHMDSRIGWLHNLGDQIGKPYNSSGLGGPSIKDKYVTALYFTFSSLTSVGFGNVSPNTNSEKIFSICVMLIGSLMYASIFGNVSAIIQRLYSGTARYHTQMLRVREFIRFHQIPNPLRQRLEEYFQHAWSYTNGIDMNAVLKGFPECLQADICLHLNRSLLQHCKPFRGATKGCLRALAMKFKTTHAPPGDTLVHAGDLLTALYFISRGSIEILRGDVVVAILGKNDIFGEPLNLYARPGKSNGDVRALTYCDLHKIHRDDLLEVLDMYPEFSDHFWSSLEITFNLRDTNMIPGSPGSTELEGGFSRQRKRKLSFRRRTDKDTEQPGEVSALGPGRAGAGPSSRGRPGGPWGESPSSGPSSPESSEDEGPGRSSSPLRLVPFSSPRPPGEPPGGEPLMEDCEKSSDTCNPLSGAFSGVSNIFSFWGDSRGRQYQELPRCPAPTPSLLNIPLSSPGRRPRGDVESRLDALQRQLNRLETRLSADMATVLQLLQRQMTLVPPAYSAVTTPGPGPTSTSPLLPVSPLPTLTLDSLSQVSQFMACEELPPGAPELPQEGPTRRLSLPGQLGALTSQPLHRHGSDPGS
Work on `CCOC(=O)COc1ccc2c(c1)CC(NCC(O)c1cccc(Cl)c1)CC2` (stereo not drawn) [SR58611] yielded an IC50 of 1.45 µM. `COc1cccc(-c2ccc(/C=C\CN3CCCCCC3)cc2Cl)c1` [SR125047] was tested, and the IC50 was 1.48 µM. `CN(C)C(=O)NC1(c2ccccc2)CCN(CC[C@@]2(c3ccc(F)c(F)c3)CN(C(=O)c3ccccc3)CCO2)CC1` [SR144190] was tested, and the IC50 was 20.3 µM. With `CN(C)C(=O)NC1(c2ccccc2)CCN(CCC[C@]2(c3ccc(Cl)c(Cl)c3)CCCN(C(=O)c3ccccc3)C2)CC1` [SSR146977] the IC50 was 1.71 µM. In the case of `O=C(N[C@@H](c1ccccc1)[C@@H]1CCCCN1)c1cccc(C(F)(F)F)c1Cl` [SSR504734], the IC50 is reported as 50.9 µM. In the case of `O=C(N[C@H](c1ccccc1)[C@@H]1CN2CCC1CC2)c1c(Cl)ccc(C(F)(F)F)c1Cl` [SSR 103800], the IC50 is reported as 30.2 µM. `COc1ccc2cc(S(=O)(=O)N[C@H](CC(=O)N[C@H](Cc3ccc(CN4[C@H](C)CCC[C@@H]4C)cc3)C(=O)N(C)C(C)C)c3ccc4c(c3)OCO4)ccc2c1` [SSR 240612] showed an IC50 of 7.07 µM. `CN(C)C(=O)C1(N2CCCCC2)CCN(CC[C@@]2(c3ccc(Cl)c(Cl)c3)CN(C(=O)c3ccccc3)CCO2)CC1` [SSR 241586 HCl] gave an IC50 of 9.49 µM. Work on `CC(C)(C)NC(=O)[C@@H]1C[C@@H]2CCCC[C@@H]2CN1C[C@@H](O)[C@H](Cc1ccccc1)NC(=O)[C@H](CC(N)=O)NC(=O)c1ccc2ccccc2n1` [Saquinavir mesylate] yielded an IC50 of 22.2 µM. `Cc1nc2n(c(=O)c1CCN1CCC(C(=O)c3ccc(F)cc3)CC1)CCS2` [Setoperone] was tested, and the IC50 was 9.89 µM. In the case of `CCCc1ccc(OCC(=O)N2CCN(C(=O)COc3ccc(CCC)cc3OC)CC2)c(OC)c1` [Simetride], the IC50 is reported as 1.4 µM. `CCCCCCCCCCCCc1ccccc1S(=O)(=O)O` [Sodium dodecylbenzenesulfonate] was tested, and the IC50 was 24.5 µM. In the case of `CNC(=O)c1cc(Oc2ccc(NC(=O)Nc3ccc(Cl)c(C(F)(F)F)c3)cc2)ccn1` [Sorafenib tosylate], the IC50 is reported as 22.1 µM. `O=C(CCCN1CCC2(CC1)C(=O)NCN2c1ccccc1)c1ccc(F)cc1` [Spiperone] gave an IC50 of 1.76 µM. `CCCN(CC)CC1COC2(CCC(C(C)(C)C)CC2)O1` (stereo not drawn) [Spiroxamine] gave an IC50 of 34.7 µM. `O=C1NCN(c2ccccc2)C12CCN(CC1COc3ccccc3O1)CC2` (stereo not drawn) [Spiroxatrine] was tested, and the IC50 was 6.24 µM. `CC[N+](CC)(CC)CCOc1ccc(/C=C/c2ccccc2)cc1` [Stilonium iodide] was tested, and the IC50 was 8.82 µM. Work on `C=C(Cl)CSC(=S)N(CC)CC` [Sulfallate] yielded an IC50 of 51.5 µM. With `CCCCCCCCN[C@H](C)[C@@H](O)c1ccc(SC(C)C)cc1` [Suloctidil] the IC50 was 0.29 µM. With `CCN1CCCC1CNC(=O)c1cc(S(N)(=O)=O)ccc1OC` (stereo not drawn) [Sulpiride] the IC50 was 34.7 µM. `CCc1c(C(=O)NN2CCCCC2)nn(-c2ccc(Cl)cc2Cl)c1-c1ccc(Br)cc1` [Surinabant] gave an IC50 of 6.92 µM. Compound `CCOc1ccccc1OCCN[C@H](C)Cc1ccc(OC)c(S(N)(=O)=O)c1` [Tamsulosin hydrochloride] has an IC50 of 19.7 µM. Work on `CC(C)(C)C(O)(CCc1ccc(Cl)cc1)Cn1cncn1` (stereo not drawn) [Tebuconazole] yielded an IC50 of 21.9 µM. In the case of `CCc1nn(C)c(C(=O)NCc2ccc(C(C)(C)C)cc2)c1Cl` [Tebufenpyrad], the IC50 is reported as 24.5 µM. `CCOP(=S)(Oc1cnc(C(C)(C)C)nc1)OC(C)C` (stereo not drawn) [Tebupirimfos] gave an IC50 of 43.6 µM. Compound `CCCCCNC(=N)N/N=C/c1c[nH]c2ccc(OC)cc12` [Tegaserod] has an IC50 of 9.16 µM. `CN(C/C=C/C#CC(C)(C)C)Cc1cccc2ccccc12` [Terbinafine] gave an IC50 of 9.52 µM. `CCN(CC)CCOc1ccc(Cc2ccccc2)cc1` [Tesmilifene] gave an IC50 of 8.82 µM. Compound `CCC(=O)O[C@H]1CC[C@H]2[C@@H]3CCC4=CC(=O)CC[C@]4(C)[C@H]3CC[C@]12C` [Testosterone propionate] has an IC50 of 25.8 µM. With `CCCC[P+](CCCC)(CCCC)CCCC` [Tetrabutylphosphonium bromide] the IC50 was 16 µM. With `CCCC[P+](CCCC)(CCCC)CCCC` [Tetrabutylphosphonium chloride] the IC50 was 23.2 µM. For `CCCCCCCCCCCCCC[n+]1ccccc1` [Tetradecylpyridinium bromide], the IC50 was 5.49 µM. With `CCCCCCCCCCCCCC[N+](C)(C)C` [Tetradonium bromide] the IC50 was 18.3 µM. Work on `CCCCC(CC)C(=O)OCCOCCOCCOCCOC(=O)C(CC)CCCC` (stereo not drawn) [Tetraethylene glycol di(2-ethylhexanoate)] yielded an IC50 of 11 µM. In the case of `CC(C)=CC1C(C(=O)OCN2C(=O)C3=C(CCCC3)C2=O)C1(C)C` (stereo not drawn) [Tetramethrin], the IC50 is reported as 40.4 µM. Compound `CN1CCC(N(Cc2cccs2)c2ccccc2)CC1` [Thenalidine] has an IC50 of 4.96 µM. `CS/C(C)=N/OC(=O)N(C)SN(C)C(=O)O/N=C(\C)SC` [Thiodicarb] gave an IC50 of 43.6 µM. `CN1CCN(CCCN2c3ccccc3Sc3ccc(S(=O)(=O)N(C)C)cc32)CC1` [Thioproperazine dimethanesulfonate] gave an IC50 of 4.96 µM. `CCN(CC)CCSC(=O)C(c1ccccc1)c1ccccc1` [Thiphenamil] was tested, and the IC50 was 3.01 µM. `CCCCCCCCCCCCCCCC[N+](C)(C)CCN(Cc1ccc(OC)cc1)c1ncccn1` [Thonzonium bromide] was tested, and the IC50 was 0.409 µM. `COC1CC(=C(c2cccs2)c2cccs2)C[N+](C)(C)C1` (stereo not drawn) [Timepidium bromide] was tested, and the IC50 was 19.7 µM. In the case of `CCOC(=O)c1c(N)sc2c1CCN(Cc1ccccc1)C2` [Tinoridine], the IC50 is reported as 21.3 µM. `CC(C)C(=O)OCc1cccc(OC(=O)[C@@H]2N3C(=O)[C@@H](NC(=O)Cc4ccccc4)[C@H]3SC2(C)C)c1` [Tobicillin] was tested, and the IC50 was 20.5 µM. Compound `Cc1ccc(N(SC(F)(Cl)Cl)S(=O)(=O)N(C)C)cc1` [Tolylfluanid] has an IC50 of 19.5 µM. Work on `CC(=O)c1cc2c(cc1C)C(C)(C)C(C)CC2(C)C` (stereo not drawn) [Tonalide] yielded an IC50 of 20.3 µM. Compound `N#Cc1c(-c2ccc(Cl)cc2)[nH]c(C(F)(F)F)c1Br` [Tralopyril] has an IC50 of 11 µM. In the case of `COc1cc2c(cc1OC)-c1c/c(=N\c3c(C)cc(C)cc3C)n(C)c(=O)n1CC2` [Trequinsin hydrochloride], the IC50 is reported as 14 µM. For `CC(C)N(C(=O)SCC(Cl)=C(Cl)Cl)C(C)C` [Tri-allate], the IC50 was 20 µM. Compound `Cc1ccccc1OP(=O)(Oc1ccccc1C)Oc1ccccc1C` [Tri-o-cresyl phosphate] has an IC50 of 21.1 µM. `CCCC[P+](C)(CCCC)CCCC` [Tributylmethylphosphonium methyl sulfate] was tested, and the IC50 was 35.1 µM. In the case of `CCCCOCCOC(=O)COc1nc(Cl)c(Cl)cc1Cl` [Triclopyr butotyl], the IC50 is reported as 34.7 µM. `Oc1cc(Cl)ccc1Oc1ccc(Cl)cc1Cl` [Triclosan] gave an IC50 of 45.2 µM. With `C=CC(=O)OCC1CC2CC1C1CCC(COC(=O)C=C)C21` (stereo not drawn) [Tricyclodecanedimethanol diacrylate] the IC50 was 36 µM. With `CCCCCCCCCCCCCN1CC(C)OC(C)C1` (stereo not drawn) [Tridemorph] the IC50 was 16.4 µM. Work on `CCCOC/C(=N\c1ccc(Cl)cc1C(F)(F)F)n1ccnc1` [Triflumizole] yielded an IC50 of 36 µM. Work on `CCCCCCCCCCCCCC[P+](CCCCCC)(CCCCCC)CCCCCC` [Trihexyltetradecylphosphonium bromide] yielded an IC50 of 0.44 µM. Work on `CCCCCCCCCCCCCC[P+](CCCCCC)(CCCCCC)CCCCCC` [Trihexyltetradecylphosphonium chloride] yielded an IC50 of 0.875 µM. `CCCCCCCCCCCCCC[P+](CCCCCC)(CCCCCC)CCCCCC.N#C[N-]C#N` [Trihexyltetradecylphosphonium dicyanamide] showed an IC50 of 0.55 µM. Compound `CCCCCCCCCCCCCC[P+](CCCCCC)(CCCCCC)CCCCCC` [Trihexyltetradecylphosphonium hexafluorophosphate] has an IC50 of 0.47 µM. Compound `CCC(COC(=O)c1cc(OC)c(OC)c(OC)c1)(c1ccccc1)N(C)C` (stereo not drawn) [Trimebutine maleate] has an IC50 of 16.9 µM.
